Results published in article PMC13415951 (Journal of Experimental Botany, 2026).
Substitutions are numbered along the chain they refer to. Where “and” joins values, the source holds several entries; their conditions need not be identical. Equal values may be shown once. Read-outs that look alike come from different tables or passages of the source.

Tests used:
BdUGT5g03300 [1] = molecular target: T1, BdUGT5g03300 (Brachypodium distachyon, UniProt I1IW79); test: biochemical
T1 sequence (I1IW79 1-469): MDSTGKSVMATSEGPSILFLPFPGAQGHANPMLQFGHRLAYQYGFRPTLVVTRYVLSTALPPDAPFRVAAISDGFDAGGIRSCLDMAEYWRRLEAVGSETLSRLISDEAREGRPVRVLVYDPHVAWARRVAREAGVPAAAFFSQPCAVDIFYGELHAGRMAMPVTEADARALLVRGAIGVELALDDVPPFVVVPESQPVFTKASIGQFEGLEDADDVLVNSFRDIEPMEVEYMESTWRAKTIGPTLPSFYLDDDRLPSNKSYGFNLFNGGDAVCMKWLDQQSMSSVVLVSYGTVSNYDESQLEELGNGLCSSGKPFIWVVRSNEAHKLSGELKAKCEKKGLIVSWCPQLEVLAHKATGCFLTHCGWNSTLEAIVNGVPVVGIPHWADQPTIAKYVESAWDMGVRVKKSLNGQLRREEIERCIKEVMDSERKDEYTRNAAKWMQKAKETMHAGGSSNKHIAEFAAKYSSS

B. distachyon Bd21-3 = system: B. distachyon Bd21-3; design: species or system Brachypodium distachyon; details: in vivo
HvUGT13248 [2] = molecular target: T2, HvUGT13248 (Hordeum vulgare subsp. vulgare, UniProt M0Y4P1)
T2 sequence (M0Y4P1 1-475): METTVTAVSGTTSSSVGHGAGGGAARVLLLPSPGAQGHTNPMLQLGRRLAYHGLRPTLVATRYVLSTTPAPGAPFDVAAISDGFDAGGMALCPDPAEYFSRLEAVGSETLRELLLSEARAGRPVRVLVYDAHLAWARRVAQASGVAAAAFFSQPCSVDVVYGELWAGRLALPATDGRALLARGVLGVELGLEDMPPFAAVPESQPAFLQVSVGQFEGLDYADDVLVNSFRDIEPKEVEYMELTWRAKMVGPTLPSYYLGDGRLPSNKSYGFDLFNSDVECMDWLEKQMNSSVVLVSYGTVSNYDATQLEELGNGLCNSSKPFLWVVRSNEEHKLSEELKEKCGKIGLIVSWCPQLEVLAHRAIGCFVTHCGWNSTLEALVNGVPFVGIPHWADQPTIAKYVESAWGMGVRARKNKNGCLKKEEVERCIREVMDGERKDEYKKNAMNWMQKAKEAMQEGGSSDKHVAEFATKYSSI

[3] = system: wheat cultivar Apogee seedlings; design: species or system Triticum aestivum; details: in vivo
[4] = molecular target: T3, OsUGT79 H122A/L123A/Q202A (Oryza sativa subsp. japonica, UniProt Q7XT97, H122A/L123A/Q202A); format: biochemical
T3 sequence (Q7XT97 1-466 H122A/L123A/Q202A): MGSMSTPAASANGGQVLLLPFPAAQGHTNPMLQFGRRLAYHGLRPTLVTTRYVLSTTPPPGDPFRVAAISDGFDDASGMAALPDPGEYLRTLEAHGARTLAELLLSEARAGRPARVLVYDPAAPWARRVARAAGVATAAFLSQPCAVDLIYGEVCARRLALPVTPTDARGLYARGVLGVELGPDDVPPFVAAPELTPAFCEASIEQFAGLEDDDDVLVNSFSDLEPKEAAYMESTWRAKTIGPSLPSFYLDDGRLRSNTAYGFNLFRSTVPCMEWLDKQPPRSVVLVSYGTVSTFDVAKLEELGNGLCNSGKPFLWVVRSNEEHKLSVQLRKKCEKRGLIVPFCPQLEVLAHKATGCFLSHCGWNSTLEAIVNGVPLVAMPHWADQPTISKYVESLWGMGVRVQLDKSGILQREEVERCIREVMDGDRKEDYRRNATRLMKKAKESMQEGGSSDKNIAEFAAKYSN

HvUGT13248 [5] = molecular target: T2, HvUGT13248; test: biochemical; format: biochemical; design: made in house; host or cells: E. coli
OsUGT79 Q202A [6] = molecular target: T4, OsUGT79 Q202A (Oryza sativa subsp. japonica, UniProt Q7XT97, Q202A); format: biochemical
T4 sequence (Q7XT97 1-466 Q202A): T3 sequence (Q7XT97 1-466 H122A/L123A/Q202A) with A122H, A123L

[7] = system: B. distachyon line OE-10R14; design: species or system Brachypodium distachyon; details: in vivo
OsUGT79 [8] = molecular target: T5, OsUGT79 (Oryza sativa subsp. japonica, UniProt Q7XT97); test: biochemical; format: biochemical
T5 construct: made in house; host or cells: E. coli
T5 sequence (Q7XT97 1-466): T3 sequence (Q7XT97 1-466 H122A/L123A/Q202A) with A122H, A123L, A202Q

OsUGT79 Q202A [9] = molecular target: T4, OsUGT79 Q202A; test: biochemical; format: biochemical
[10] = molecular target: T3, OsUGT79 H122A/L123A/Q202A; test: biochemical; format: biochemical
BdUGT5g03300 [11] = molecular target: T1, BdUGT5g03300; format: biochemical
OsUGT79 [12] = molecular target: T5, OsUGT79; test: biochemical; format: biochemical; remark: listed apart in the source
[13] = substrate: CC1(C)CCC[C@]2(C)[C@@H]3[C@H]1[C@@H](O)[C@@]2(C)C[C@H]3O; test: purified protein, by the assay type

Molecule: 11-Acetyl-culmorin
- Glucosylation rate of DON, percentage of the control (BdUGT5g03300 [1]): 0.83±0.01%

Molecule: CC1=C[C@H]2O[C@@H]3[C@H](O)C[C@](C)([C@@]2(CO)[C@H](O)C1=O)[C@]31CO1 [DON, deoxynivalenol]
- DON concentration up to which root growth was observed (B. distachyon Bd21-3): up to 16 mg l^−1
- DON concentrations at which root growth was not affected or barely affected (B. distachyon Bd21-3): 2 to 8 mg/L
- Specific activity (glucoside formation) (HvUGT13248 [2]): 8.77 ± 0.52 nmol/min/mg
- Specific activity (glucoside formation) (BdUGT5g03300 [1]): 1.07 ± 0.03 nmol/min/mg
- DON concentration at which root growth was already impaired [3]: 3 mg/L
- Effect on primary and total root length [3]: significant reduction
- Specific activity (glucoside formation) [4]: 6.60 ± 0.31 nmol/min/mg
- K M (DON) (HvUGT13248 [5]): 1800 µM
- V max with DON (HvUGT13248 [5]): 0.18 µmol/min/mg
- Specific activity (glucoside formation) (OsUGT79 Q202A [6]): 161 ± 46 nmol/min/mg
- DON concentration tolerated without significant reduction in root length [7]: up to 50 mg l^−1
- Specific activity (glucoside formation) (OsUGT79 [8]): 159 ± 33 nmol/min/mg
- K M (DON) (OsUGT79 Q202A [9]): 290 µM
- V max with DON (OsUGT79 Q202A [9]): 0.85 µmol/min/mg
- K M (DON) [10]: 1300 µM
- V max with DON [10]: 0.26 µmol/min/mg
- K M (DON) (BdUGT5g03300 [11]): 1100 µM
- V max with DON (BdUGT5g03300 [11]): 0.14 µmol/min/mg
- K M (DON) (OsUGT79 [12]): 190 µM
- V max with DON (OsUGT79 [12]): 0.63 µmol/min/mg

Molecule: Culmorin-8,11-disulfate
- Glucosylation rate of DON, percentage of the control (HvUGT13248 [2]): 98±2%
- Glucosylation rate of DON, percentage of the control (BdUGT5g03300 [1]): 95±1% and 78±1%
- Glucosylation rate of DON, percentage of the control (OsUGT79 [8]): 103±2% and 99±7%

Molecule: Culmorin-8-glucoside
- Glucosylation rate of DON, percentage of the control (HvUGT13248 [2]): 92±2% and 81±3%
- Glucosylation rate of DON, percentage of the control (BdUGT5g03300 [1]): 0.93±0.02%
- Glucosylation rate of DON, percentage of the control (OsUGT79 [8]): 97±7% and 91±7%

Molecule: Culmorin-8-sulfate
- Glucosylation rate of DON, percentage of the control (HvUGT13248 [2]): 97±4% and 79±1%
- Glucosylation rate of DON, percentage of the control (OsUGT79 [8]): 105±1% and 89±4%

Molecule: Culmorin-11-glucoside
- Glucosylation rate of DON, percentage of the control (BdUGT5g03300 [1]): 0.48±0.03%
- Glucosylation rate of DON, percentage of the control (OsUGT79 [8]): 96±7% and 115±5%

Molecule: Culmorin-11-sulfate
- Glucosylation rate of DON, percentage of the control (HvUGT13248 [2]): 90±2% and 49±3%
- Glucosylation rate of DON, percentage of the control (BdUGT5g03300 [1]): 0.30±0.02%
- Glucosylation rate of DON, percentage of the control (OsUGT79 [8]): 91±7% and 61±2%

B1: HvUGT13248 (Hordeum vulgare subsp. vulgare) (protein)
chain: T2 sequence (M0Y4P1 1-475)
- Km ([13]; pH 7.0): 27 ± 4 µM
- Vmax ([13]; pH 7.0): 18.2 ± 0.8 nmol/min/mg

B2: BdUGT5g03370 (Brachypodium distachyon) (protein)
chain: MDSINTTAQRSIGGGGGHVLLLPFPGMQGHANPMLQLGRRLAYHGLRPTLVVTRYVFSTTATTDGCPFPVAAISDGFDAGGIASCPDTAEYLRRMESVGSETLSRLISDEARAGRPVRVLVYDSHLPWARRAAKRAGVAAAAFLTQLCAVDVIYGEAWAGRVALPLTDGSALRGVLSVELGPDDVPPFVAAPEWYPAFTESALGQFDGLEEADDVLVNSFRDLEPKEADYMELVWRTKTVGPTLPSFYLDDNRLPLNKTYGFNLFSSIALCMEWLDKQVPCSVVLASYGTVANLNSTQLEELGYGLCNSRQPFLWVLRSDEAEKLPKDLRDKCNTKGLIVPFCPQLEVLAHKATGCFLTHCGWNSTIEAIVTGVPMVAIPQWADQPTTAKYVESAWGIGRRACPDRECLVTREKIERCVKEVICGEKEYTRNAAKWMQKAKEAMQQGGSSDKNISDFVAKYL
- Km [13]: 59 ± 7 µM
- Vmax [13]: 0.57 nmol/min/mg

B3: BdUGT5g03380 (Brachypodium distachyon) (protein)
chain: MESVNTSPHSSDHEGGGGGGAHVLLVPLPAQGHMNPMLQFGRRLAYHGLRPTLAATRYVLSTGPPPGAPFRVAAFSDGFDAGGMASCADPVEYCRKFEAVGSSTLAQAIESETAAGRAPTVLVYDPHMAWVPRVARAAGVPVAAFMSQSCAVDLVYGEAWAGRAPLPMADGSALKRRGIVSIDLAAEDLSPFVVSPEIYPKYLDVSIRQFEALDDADDVFVNSFRDLEPLEAEYMEKRWRAKTVGPTLPSFFLGDDRLPSNKAYGVNFFSATAPCMAWLDRQPARSVVLASYGTVYNLESMELDELGNGLCDSGKPFLWVVRSSEAEKLSEQLLGRCKEKGLIVPWCPQLDVLAHNAIGCFLTHCGWNSTTEAIVAGVPMVAMPRSADQPTTAKYVESAWGIGVRVRADEKGLVKRAEVEGCIKKVMDGEMKDEFRGNAAEWMRKAKEAMQEGGSSDKNIAEFAAKYLER
- Km [13]: 150 µM
- Vmax [13]: 0.43 ± 0.03 nmol/min/mg
